Assay results taken from US9248131B2, “Aquaporin modulators and methods of using them for the treatment of edema and fluid imbalance” (THE ARIZONA BOARD OF REGENTS ON BEHALF OF THE UNIVERSITY OF …, priority 2006, dated 2016).

What was measured:
[1] = molecular target: T1, AQP4 (Homo sapiens, UniProt P55087); experiment: Oocyte swelling assay: water permeability (Pf) of AQP4-expressing oocytes by videomicroscopy, block or % stimulation; type: cell-based
T1 construct: expressed in transfected cells; host or cells: Xenopus oocytes
T1 sequence (P55087 whole entry, species assumed): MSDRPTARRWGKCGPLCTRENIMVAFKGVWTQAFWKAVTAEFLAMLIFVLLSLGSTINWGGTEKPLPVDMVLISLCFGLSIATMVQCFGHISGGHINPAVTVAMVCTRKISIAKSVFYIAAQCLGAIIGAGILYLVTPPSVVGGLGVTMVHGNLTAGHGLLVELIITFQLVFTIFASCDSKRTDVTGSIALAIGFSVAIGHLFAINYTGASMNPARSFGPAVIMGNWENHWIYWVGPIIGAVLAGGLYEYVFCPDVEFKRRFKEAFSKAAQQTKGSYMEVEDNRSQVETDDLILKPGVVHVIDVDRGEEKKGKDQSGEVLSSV
Description: A method for screening compounds for their ability to modulate aquaporin activity based on a water permeability assay in Xenopus oocytes expressing aquaporins which is used to identify, assess, and characterize compounds that either block or stimulate the aquaporin channels including AQP1, AQP4 and AQP9 channels.
Selection rationale and methodology. The ability of compounds, analogs and/or agents to block an aquaporin channel was quantified by videomicroscopic analyses of cross-sectional area of AQP-expressing oocytes as a function of time in a defined osmotic gradient, allowing the calculation of the water permeability factor (Pf), statistical evaluation of significant differences in the rate of water entry, and definition of dose response curves with IC50 values (concentration required for half-maximal block).
This compound evaluation method has been utilized with AQP1,-4,-5, and -9 channels. Observations of channel stimulation were made using the same assay method, however, the results were reported as % stimulation over control at a given concentration. […] TEA is known as a blocker of K^+ channel subtypes and nicotinic acetylcholine receptors. TEA sensitivity of AQP1 was removed by site-directed mutagenesis of tyrosine 186 to phenylalanine (Y186F) in the outer vestibule of the water pore, and confirmed that the inhibitory action of TEA is not due to nonspecific effects on endogenous channels (Brooks et al., 2000).

[2] = molecular target: T2, native AQP4 in primary cultures of astroglia (Rattus norvegicus, UniProt P47863); experiment: Astroglial swelling in primary hippocampal cultures after 50% hypotonic saline; type: cell-based; conditions: 100 μM extracellular, 15 min preincubation
T2 construct: endogenous in cells; host or cells: rat primary hippocampal astroglial cultures
T2 sequence (P47863 whole entry): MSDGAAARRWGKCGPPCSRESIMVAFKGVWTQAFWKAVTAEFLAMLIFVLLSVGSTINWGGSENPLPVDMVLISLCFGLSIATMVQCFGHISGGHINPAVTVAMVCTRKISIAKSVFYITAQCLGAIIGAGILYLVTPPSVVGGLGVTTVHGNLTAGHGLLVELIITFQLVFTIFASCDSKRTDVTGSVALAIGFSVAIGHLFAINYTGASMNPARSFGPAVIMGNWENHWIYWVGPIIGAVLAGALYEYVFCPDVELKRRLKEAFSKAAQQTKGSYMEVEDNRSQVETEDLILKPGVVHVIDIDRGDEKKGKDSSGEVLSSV
Description: The role of native AQP4 as a target of block by bumetanide was tested in primary cultures of astroglia (FIG. 4). We compared the swelling responses of rat astroglial cells in primary hippocampal cultures after 15 min preincubation with or without drug. Swelling was induced by rapid perfusion of the culture plate with 50% hypotonic saline, either with or without extracellular bumetanide (100 μM) to match the preincubation condition. Glial cells were identified by morphological comparison with cells positive for a glial-specific marker (GFAP). Time-lapse images were taken at 15 second intervals before and during hypotonic challenge. The response was determined by the change in soma area as a function of time, as visualized by time-lapse digital imaging (Olympus MagnaFire™ camera and image acquisition software) using an inverted phase contrast microscope (Nikon); data were analyzed by Scion Image (NIH) software. Each culture was used for only one swelling trial. […]
FIG. 3 illustrates the protective effect of bumetanide on astroglial swelling in primary hippocampal cultures (14-15 days in vitro) after exposure to 50% hypotonic saline at time zero. Plot (left): Cell area visualized by phase contrast microscopy, standardized to the initial volume quantified by Scion Image (NIH) software. […]

[3] = test system: ischemia-induced cerebral edema (MCAO); conditions: cited from earlier work
[4] = molecular target: T3, AQP4-expressing oocytes (Homo sapiens, UniProt P55087); experiment: Simple screen: time to oocyte bursting in hypotonic saline; type: cell-based; conditions: 100 μM; AQP4-expressing oocytes preincubated 10-15 min, then 100 mOsm saline
T3 construct: expressed in transfected cells; host or cells: Xenopus oocytes
T3 sequence (P55087 whole entry, species assumed): as the sequence (P55087 whole entry, species assumed) above
Description: The composition of the library for initial AQP channel screening included various channel, transporter and receptor blocking compounds based on intuition and from clues regarding clinical side effects that involved water transporting tissues. In a simple screen (FIG. 1), control and AQP4-expressing oocytes were preincubated in isotonic saline (100 mM NaCl; 5 mM MgCl2; 5 mM HEPES, pH 7.3; ˜200 mOsm) containing the test compound for 10-15 min before each experiment; then the time to oocyte bursting (physical explosion) after transfer to 100 mOsm saline was monitored visually. […] Block was evident in the increased time required for bursting in hypotonic saline.

[5] = test system: cerebral ischemia (MCAO model); experiment: Middle cerebral artery occlusion (MCAO) model, 1 h ischemia and 24 h reperfusion; type: in vivo, mice; conditions: 60 mg/kg intravenous single bolus 10 min before reperfusion, 1 h ischemia
Description: Anatomical measures of infarct size, brain volume, neurological assessments, and mortality rate can be used to assess the consequences of middle cerebral artery occlusion (MCAO) model in mice. The rodent MCAO model, an accepted model of cerebral ischemia and reperfusion (Clark et al., 1997), uses a silicone-coated filament to promote cerebral artery occlusion (Migliati et al., 2001). An innovative method to measure effective occlusion in real time is by laser Doppler monitoring of blood flow rate
Typical procedure for MCAO model in mice: Wild-type C57BL/6J male mice at 9-11 weeks old are anesthetized, and cerebral blood flow is recorded as baseline using laser Doppler. The monofilament is placed in the internal common carotid and advanced to the ostia of the middle cerebral artery. […] After 24 h, animals are evaluated for neurological, behavioral, and general deficits, and then sacrificed for anatomical analysis of the infarcted and contralateral control hemispheres. […]
FIG. 6 illustrates cerebral edema and infarct size in mice subjected to one hour of ischemia and 24 hours of reperfusion, with and without bumetanide (60 mg/kg) administered intravenously in a single bolus at 10 min before reperfusion. Stained with 2% TTC, the infarcted area is white; areas are analyzed using morphometric software by researchers blinded to the treatment group.

Compound: CCCCNc1cc(C(=O)O)cc(S(N)(=O)=O)c1Oc1ccccc1 [bumetanide]
- block of swelling rate in AQP4-expressing oocytes ([1]; extracellular application): Dose-dependent block
- block of swelling in AQP4-expressing oocytes ([1]; internal injection into the oocyte (intracellular)): improved block at lower concentrations
- glial initial swelling (soma area) [2]: reduced
- regulatory volume decrease (RVD) [2]: reduced
- ischemia-induced cerebral edema ([3]; 30-mg/kg dose, rats, MCAO): effectively reduced ischemia-induced cerebral edema
- edema formation, magnetic resonance diffusion-weighted imaging ([3]; intravenous, first 3 hours of MCAO-induced cerebral ischemia): reduced edema formation
- lowest effective dose ([3]; rats, MCAO, reduction of edema): 7.6 mg/kg
- time to oocyte bursting [4]: significantly delayed bursting time
- cerebral edema and infarct size, statistical significance (p<0.06) [5]: does not meet criteria, but indicates promise
